{
  "source": "paper PMC6719874",
  "about": "(PLoS ONE, 2019)",
  "origin": "cited, not measured here",
  "key": {"[1]": {"test_system": "tumors / human xenografts"}, "L-type calcium channels": {"test_system": "L-type calcium channels", "parameters": "method as in PMID 17125805, PMID 19887376"}, "F656A hERG": {"biological_target": "F656A hERG (Homo sapiens, UniProt Q12809, F656A)", "sequence (Q12809 whole entry F656A)": "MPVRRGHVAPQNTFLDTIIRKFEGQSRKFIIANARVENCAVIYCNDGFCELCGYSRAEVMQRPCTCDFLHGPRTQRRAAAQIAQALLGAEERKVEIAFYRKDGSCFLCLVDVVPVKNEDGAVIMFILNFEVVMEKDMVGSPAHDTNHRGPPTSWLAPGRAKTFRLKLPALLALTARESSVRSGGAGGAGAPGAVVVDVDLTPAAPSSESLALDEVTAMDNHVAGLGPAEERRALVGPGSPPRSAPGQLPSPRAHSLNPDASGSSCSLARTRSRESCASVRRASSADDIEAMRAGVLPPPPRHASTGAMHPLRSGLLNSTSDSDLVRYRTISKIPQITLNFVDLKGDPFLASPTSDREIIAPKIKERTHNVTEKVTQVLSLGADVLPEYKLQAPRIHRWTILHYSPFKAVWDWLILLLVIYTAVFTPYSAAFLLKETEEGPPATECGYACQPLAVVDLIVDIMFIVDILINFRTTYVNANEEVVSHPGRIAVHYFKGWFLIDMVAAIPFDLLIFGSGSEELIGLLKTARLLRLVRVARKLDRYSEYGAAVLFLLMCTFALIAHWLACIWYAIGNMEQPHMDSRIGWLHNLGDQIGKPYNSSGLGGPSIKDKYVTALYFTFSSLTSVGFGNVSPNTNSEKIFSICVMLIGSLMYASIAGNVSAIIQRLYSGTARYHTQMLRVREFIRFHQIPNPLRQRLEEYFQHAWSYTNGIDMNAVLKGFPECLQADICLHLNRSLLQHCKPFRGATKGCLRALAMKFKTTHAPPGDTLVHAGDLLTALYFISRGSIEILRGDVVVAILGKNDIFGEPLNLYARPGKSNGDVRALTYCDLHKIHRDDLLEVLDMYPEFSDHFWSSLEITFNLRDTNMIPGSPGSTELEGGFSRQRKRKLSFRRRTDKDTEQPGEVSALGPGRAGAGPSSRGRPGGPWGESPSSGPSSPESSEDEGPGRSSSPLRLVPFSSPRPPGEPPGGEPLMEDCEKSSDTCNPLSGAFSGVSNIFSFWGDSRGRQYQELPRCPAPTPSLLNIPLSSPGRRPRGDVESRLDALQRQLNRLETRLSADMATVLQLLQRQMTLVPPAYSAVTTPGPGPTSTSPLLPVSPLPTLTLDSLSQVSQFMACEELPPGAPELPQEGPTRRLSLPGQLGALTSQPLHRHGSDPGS", "conditions": "F656A ref 87"}, "Y652A hERG": {"biological_target": "T1, Y652A hERG (Homo sapiens, UniProt Q12809, Y652A)", "T1 construct": "host or cells: Xenopus laevis oocytes injected with cRNA", "T1 sequence (Q12809 whole entry Y652A)": "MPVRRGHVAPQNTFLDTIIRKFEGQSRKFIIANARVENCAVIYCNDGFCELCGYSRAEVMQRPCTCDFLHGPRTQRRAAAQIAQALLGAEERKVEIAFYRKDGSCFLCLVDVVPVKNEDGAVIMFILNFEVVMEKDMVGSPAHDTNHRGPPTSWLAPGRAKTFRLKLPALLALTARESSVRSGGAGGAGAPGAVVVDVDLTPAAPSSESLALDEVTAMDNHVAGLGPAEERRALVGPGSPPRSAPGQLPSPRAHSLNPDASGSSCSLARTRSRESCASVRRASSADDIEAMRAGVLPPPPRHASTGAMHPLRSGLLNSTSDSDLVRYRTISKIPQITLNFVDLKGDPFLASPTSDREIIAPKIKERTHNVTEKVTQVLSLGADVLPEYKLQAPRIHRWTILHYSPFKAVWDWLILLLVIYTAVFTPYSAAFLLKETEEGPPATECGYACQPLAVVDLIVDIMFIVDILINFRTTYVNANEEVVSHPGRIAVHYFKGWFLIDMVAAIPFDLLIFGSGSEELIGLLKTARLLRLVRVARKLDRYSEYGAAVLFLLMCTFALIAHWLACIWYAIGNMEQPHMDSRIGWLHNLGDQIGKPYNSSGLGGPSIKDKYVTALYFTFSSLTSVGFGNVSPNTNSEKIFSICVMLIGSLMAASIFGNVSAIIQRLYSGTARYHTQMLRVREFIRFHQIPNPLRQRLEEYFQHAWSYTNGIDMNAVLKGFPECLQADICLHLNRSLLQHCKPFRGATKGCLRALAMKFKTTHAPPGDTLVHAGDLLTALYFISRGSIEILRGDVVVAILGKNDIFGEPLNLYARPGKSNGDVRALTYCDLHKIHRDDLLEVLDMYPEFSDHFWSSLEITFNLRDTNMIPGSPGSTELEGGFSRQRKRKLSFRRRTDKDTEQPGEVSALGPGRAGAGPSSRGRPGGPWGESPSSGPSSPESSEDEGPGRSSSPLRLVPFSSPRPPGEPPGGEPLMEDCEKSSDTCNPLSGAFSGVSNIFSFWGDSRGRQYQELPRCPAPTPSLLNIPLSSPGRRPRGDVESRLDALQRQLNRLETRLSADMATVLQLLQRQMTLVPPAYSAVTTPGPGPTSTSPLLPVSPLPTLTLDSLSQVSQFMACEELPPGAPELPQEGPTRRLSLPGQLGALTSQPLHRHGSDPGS", "conditions": "Y652A ref 87"}},
  "note": "Entries after “also recorded” stand apart in the source; their conditions may differ.",
  "data": [
    {"smiles": "CCC(CO)Nc1nc(NCc2ccccc2)c2ncn(C(C)C)c2n1", "note": "(centres unmarked) [R-roscovitine, 2-(1-ethyl-2-hydroxyethylamino)-6-benzylamino-9-isopropylpurine]", "values": [
      {"measurement": "QT prolongation or other cardiac side effects", "setting": "clinical trial, range of concentrations ref 18", "value": "did not find QT prolongation or other cardiac side effects"},
      {"measurement": "tolerability", "setting": "phase II clinical trials", "value": "well tolerated"},
      {"measurement": "inhibition of S620T compared to WT", "setting": "S620T hERG", "value": "similar; also recorded: not different from WT inhibition"},
      {"measurement": "tumor suppression", "setting": "[1]; mice ref 75-77", "value": "significant tumor suppression"},
      {"measurement": "growth delay of human xenografts", "setting": "[1]; mice ref 78", "value": "significant growth delay"},
      {"measurement": "potency of inhibition", "setting": "L-type calcium channels", "value": "~ 25 μM"}
    ]},
    {"smiles": "Cc1cccc(C)c1OCC(C)N", "note": "(centres unmarked) [mexiletine]", "values": [
      {"measurement": "fold change in IC50 in relation to WT", "setting": "F656A hERG", "value": "~ 28 fold"},
      {"measurement": "fold change in IC50 in relation to WT", "setting": "Y652A hERG", "value": "~ 12 fold"}
    ]}
  ]
}
